Measured values reported in publication PMC9016803, “Mitochondria-targeted half-sandwich iridium(III)-Cp*-arylimidazophenanthroline complexes as antiproliferative and bioimaging agents against triple negative breast cancer cells MDA-MB-468” (RSC Advances, 2022).

Experiments:
MDA-MB-468 cells = test: ROS generation, DCFDA staining; type: cell-based
Method: Our results indicated a dose dependent increase in ROS production in the MDA-MB-468 cells treated with IrL1 concentrations 1 μM and 3 μM. The extent of ROS production is indicated by the 2′,7′-dichlorofluorescein (DCF) formed by the deacetylation and subsequent oxidation of 2′,7′-dichlorofluorescin diacetate (DCFDA) through cellular esterases and ROS. […] ROS production was absent in untreated control. However, in the positive control, treated with H2O2, ROS production was high which is ∼99% (Fig. 11).
Colocalization study and ROS generation studies were performed using live cell lines in their log phase.

Solubility study = type: physicochemical; details: DMSO-10% DMEM medium (1 : 99 v/v, comparable to cell media)
Method: (§1) Both hydrophilicity and lipophilicity studies were performed to determine the tumour-inhibiting potential of the metal complexes. These complexes were highly soluble in DMSO and moderately soluble in H2O, MeOH, EtOH and CH3CN. […] The lipophilicity of these complexes was determined by performing an n-octanol/water partition coefficient (log Po/w, where Po/w = the octanol/water partition coefficient) study using the shake flask method (Table 1).[24] The experimental log Po/w values of these complexes were determined to be in the range of 0.27–0.34 (Table 1). […] This change in the electrolytic behaviour of the complexes from 1 : 1 to 1 : 2 can be attributed to the dissociation of the Ir–Cl bond and subsequent aquation of the complexes.

[1] = n-Octanol/water partition coefficient, shake flask method; type: physicochemical
Method: as §1, with “the complexes. […]” for “the complexes.”
n-Octanol–water partition coefficient (log P o/w)9
The log Po/w of the iridium complexes were adhering to shake flask method using the previously published procedure. A known amount of each complex (IrL1-IrL5) was suspended in water (pre-saturated with n-octanol) and shaken for 48 h on an orbital shaker.
To allow the phase separation, the solution was centrifuged for 10 min at 3000 rpm. To obtain the partition coefficient, different ratios (0.5: 1, 1: 1, and 2: 1) of the saturated solutions were shaken with pre-saturated n-octanol for 20 min on an orbital shaker and followed the same procedure. Aliquots of the aqueous and octanol layers were pipetted out separately and the absorbances were measured with UV-Vis spectrophotometer using proper dilution. Each set was performed in triplicate, concentration of the substances in each layer was calculated using the respective molar extinction coefficients and the partition coefficient (log P o/w) values were obtained from the ratio.

[2] = system: immortalized human keratinocyte cell line HaCaT; test: MTT in vitro cytotoxicity assay, normal cells; type: cell-based; details: 48 h
Method: Consequently, the IrL1 complex doses of 1 μM, 3 μM and 5 μM were selected for further experimental analysis. Furthermore, the possible cytotoxic effects of IrL1 on normal cell line were also examined on the immortalized human keratinocyte cell line HaCaT.
Cytotoxicity study of all the synthesized compounds against triple negative breast cancer cells MDA-MB-468 and immortalized human keratinocyte cell line HaCaT were done with a drug incubation period of 48 h by following standard procedure that were mentioned in ESI. ^† Preliminary studies were done to understand the mode of action of the complex to induce cytotoxicity using flow cytometric methods. […]
In vitro cytotoxicity study was measured by standard MTT assay protocol.1 First the prepared complexes (IrL1-IrL5) were dissolved in 0.1% DMSO followed by dilution with DMEM medium. […] Then the resultant suspension was kept on micro vibrator for 10 min and the absorbance was recorded at λ = 570 nm in ELISA plate reader. […] The data were represented as the growth inhibition percentage i.e. % growth inhibition = 100 − [(AD × 100)/AB], where AD, measured absorbance in wells which contain samples and AB, measured absorbance for blank wells (cells with a medium and a vehicle). […]

Solubility (Solubility study): 700 µM | log P (n-octanol/water partition coefficient) [1]: 0.27 ± 0.07
Substance: [Iridium(III)-Cp*-2-(naphthalen-1-yl)-1H-imidazo[4,5-f][1,10]phenanthroline]PF6 [IrL1]
DCF positive cells (MDA-MB-468 cells; 1 μM): 55.01% | DCF positive cells (MDA-MB-468 cells; 3 μM): 70.67% | IC50 [2]: 11.4 µM
